The results in this text go back to patent publication US20150331992A1, “CANCER PROGNOSIS AND THERAPY BASED ON SYNTHEIC LETHALITY” (Ramot at Tel-Aviv University Ltd., priority 2014, published 2015).

SMILES strings stand for the structures.

For this experiment, the system named is VHL-deficient and VHL-restored renal carcinoma cells (RCC4). The experiment is described as follows: Growth inhibition of VHL-deficient vs VHL-restored renal cells by drugs at mid-effective concentration. The class given is cell-based. The note with it: mid-effective concentration of each drug; both cell lines in triplicates; FIG. 5. Here is the method: A range of concentrations for each drug were tested to identify a suitable working concentration in which there was an effect on cells growth, but not complete death (which is more likely to be due to non-specific toxicity).
`CN(C)CCC=C1c2ccccc2CCc2ccccc21` [Amitriptyline]: the “Sensitivity (percentage of growth inhibition) of VHL-deficient cells compared to isogenic cells in which pVHL was restored” value is on record as “significantly more sensitive”.

Turning to `Nc1ccncc1` [Dalfampridine], the “Sensitivity (percentage of growth inhibition) of VHL-deficient cells compared to isogenic cells in which pVHL was restored” value is “significantly more sensitive”.

For `C[N+]1(CCCCC[N+]2(C)CCCC2)CCCC1` [Pentolinium], the “Sensitivity (percentage of growth inhibition) of VHL-deficient cells compared to isogenic cells in which pVHL was restored” value was “significantly more sensitive”.

As to `CN(C)CCCN1c2ccccc2CCc2ccccc21` [Imipramine], the “Sensitivity (percentage of growth inhibition) of VHL-deficient cells compared to isogenic cells in which pVHL was restored” value is reported as “significantly more sensitive”.

With `COc1ccc(CCN(C)CCCC(C#N)(c2ccc(OC)c(OC)c2)C(C)C)cc1OC` (centres unmarked) [Verapamil], the “Sensitivity (percentage of growth inhibition) of VHL-deficient cells compared to isogenic cells in which pVHL was restored” value was “significantly more sensitive”.
